We go through 21 compounds from US7153849B2, “Antidepressant arylpiperazine derivatives of hetrocycle-fused benzodioxans” (Wyeth, priority 2002, dated 2006).

SMILES strings stand for the structures. pEC50, pIC50, pKi: −log10 of the molar value. Structures can show the parent of a compound that is named as a salt.

What is called melting point is the temperature of the solid-liquid transition. The term pKi denotes the Ki on a negative log10 scale, so that one unit is a factor of ten. One may read the pIC50 as −log10 of the IC50, conventionally taken in molar units. The pEC50 is the EC50 on a negative log10 scale, so that one unit is a factor of ten.

For one data set, the target named is T1, human 5HT1A receptors (Homo sapiens, UniProt P08908).
T1 construct: expressed in transfected cells; host or cells: CHO cells
T1 sequence (P08908 1-422): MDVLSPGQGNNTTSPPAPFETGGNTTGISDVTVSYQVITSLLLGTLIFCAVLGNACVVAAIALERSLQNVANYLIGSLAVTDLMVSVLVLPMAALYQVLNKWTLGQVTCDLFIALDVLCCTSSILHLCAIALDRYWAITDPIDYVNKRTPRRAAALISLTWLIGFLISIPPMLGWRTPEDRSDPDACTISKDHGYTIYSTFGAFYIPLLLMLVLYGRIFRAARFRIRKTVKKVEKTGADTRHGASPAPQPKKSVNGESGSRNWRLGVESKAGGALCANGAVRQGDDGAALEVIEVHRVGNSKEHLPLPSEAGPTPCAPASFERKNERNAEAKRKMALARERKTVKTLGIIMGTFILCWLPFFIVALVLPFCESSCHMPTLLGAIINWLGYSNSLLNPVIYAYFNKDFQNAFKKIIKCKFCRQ
As to the kind of experiment: [3H] 8-OH-DPAT displacement from 5HT1A receptor in stably transfected CHO cells. Type of data set: binding. The following applies: CHO cells with human 5HT1A; for pKi: read-out: 5HT1A Receptor Affinity Ki. An excerpt: High affinity for the serotonin 5HT1A receptor was established by testing the claimed compound's ability to displace [^3H] 8-OH-DPAT (dipropylamino-tetralin) from the 5HT1A serotonin receptor following a modification of the procedure of Hall et al., J. Neurochem. 44, 1685 (1985) which utilizes CHO cells stably transfected with human 5HT1A receptors.

The next data set concerns the target T2, serotonin transporter (Rattus norvegicus, UniProt P31652).
T2 construct: displace ^3H-paroxetine from male rat frontal cortical membranes; from tissue; host or cells: male rat frontal cortical membranes
As to the kind of experiment: 3H-paroxetine displacement from rat frontal cortical membranes (serotonin transporter affinity). It counts as binding. The settings on record: for pKi: 3H-paroxetine, male rat frontal cortical membranes, read-out: 5-HT Transporter Affinity Ki.

In data set [1] the target is T3, cloned human 5HT1A receptors (Homo sapiens, UniProt P08908).
T3 construct: expressed in transfected cells
T3 sequence (P08908 1-422): T1 sequence (P08908 1-422)
As to the kind of experiment: 35S-GTPγS binding assay, 5HT1A antagonist activity. Type of data set: biochemical. The following applies: for 5HT1A Function Imax: maximum inhibitory effect, vs 8-OH-DPAT, unit assumed; for pIC50: reversal of 8-OH-DPAT (antagonist), read-out: 5HT1A Function IC50; for 5HT1A Function Emax / pEC50: increase in binding (agonist); for pEC50: read-out: 5HT1A Function EC50. On the procedure: Antagonist activity at 5HT1A receptors was established by using a ^35S-GTPγS binding assay similar to that used by Lazareno and Birdsall (Br. J. Pharmacol. 109:1120, 1993), in which the test compound's ability to affect the binding of ^35S-GTPγS to membranes containing cloned human 5HT1A receptors was determined. Agonists produce an increase in binding whereas antagonists produce no increase but rather reverse the effects of the standard agonist 8-OH-DPAT. The test compound's maximum inhibitory effect is represented as the Imax, while its potency is defined by the IC50.

T2 sequence (P31652 whole entry): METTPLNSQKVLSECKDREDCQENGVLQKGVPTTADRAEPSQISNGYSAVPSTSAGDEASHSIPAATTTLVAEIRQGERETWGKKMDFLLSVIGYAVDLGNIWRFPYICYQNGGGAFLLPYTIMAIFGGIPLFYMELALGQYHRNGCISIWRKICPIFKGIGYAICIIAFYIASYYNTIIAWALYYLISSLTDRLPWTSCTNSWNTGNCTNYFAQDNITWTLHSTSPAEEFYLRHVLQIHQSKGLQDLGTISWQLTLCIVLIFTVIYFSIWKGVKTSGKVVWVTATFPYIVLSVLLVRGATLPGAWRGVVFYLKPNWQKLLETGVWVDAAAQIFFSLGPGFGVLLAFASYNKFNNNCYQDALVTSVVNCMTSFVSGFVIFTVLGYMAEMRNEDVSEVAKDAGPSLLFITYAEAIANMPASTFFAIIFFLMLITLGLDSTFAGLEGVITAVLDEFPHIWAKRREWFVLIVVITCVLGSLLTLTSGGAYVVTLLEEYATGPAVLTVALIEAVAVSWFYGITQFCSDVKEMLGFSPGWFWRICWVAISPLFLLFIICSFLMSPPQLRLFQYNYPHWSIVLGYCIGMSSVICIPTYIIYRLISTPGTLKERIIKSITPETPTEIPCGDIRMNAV

`Cc1ccc2c3c(ccc2n1)OC[C@H](CN1CCN(c2ccc(Cl)c(Cl)c2)CC1)O3` (as salt: fumarate) [Example 3, (2S)-2-{[4-(3,4-dichlorophenyl)piperazin-1-yl]methyl}-8-methyl-2,3-dihydro[1,4]dioxine[2,3-f]quinoline] had a melting point of 140 to 144 °C.
Same read-out and setting: then `Cc1ccc2c3c(ccc2n1)OC[C@H](CN1CCN(c2cccc4c2OCCO4)CC1)O3` (as salt: fumarate) [Example 7, (2S)-2-{[4-(dihydrobenzo[1,4]dioxin-5-yl)piperazin-1-yl]methyl}-8-methyl-2,3-dihydro[1,4]dioxino[2,3-f]quinoline], with 154 to 155 °C; and `Cc1ccc2c3c(ccc2n1)OC[C@H](CN1CCN(c2ccc4ccccc4n2)CC1)O3` (as salt: hydrochloride) [Example 12, (2S)-8-methyl-2-[(4-quinolin-2-ylpiprazin-1-yl)methyl]-2,3-dihydro[1,4]dioxino[2,3-f]quinoline], with 237 to 243 °C.
Consider `Cc1ccc2c3c(ccc2n1)OC[C@H](CN1CCN(c2ccc4cc([N+](=O)[O-])ccc4n2)CC1)O3` (as salt: salt) [Example 13], for which the melting point is 200 °C (dec.).
Take `Cc1ccc2c3c(ccc2n1)OC[C@H](CN1CCN(c2ccc(Cl)cc2)CC1)O3` [Example 2, (2S)-2-{[4-(4-chlorophenyl)piperazin-1-yl]methyl}-8-methyl-2,3-dihydro[1,4]dioxino[2,3-f]quinoline]: the pKi at human 5HT1A receptors is 7.64. Moreover, at serotonin transporter, the pKi is 6.25. Further, in data set [1], the 5HT1A Function Imax stood at 26% and the pIC50 was 6.20.
As for `Cc1ccc2c3c(ccc2n1)OC[C@H](CN1CCN(c2ccc(Cl)c(Cl)c2)CC1)O3` [Example 3, (2S)-2-{[4-(3,4-dichlorophenyl)piperazin-1-yl]methyl}-8-methyl-2,3-dihydro[1,4]dioxine[2,3-f]quinoline], the pKi on human 5HT1A receptors was 5.98; at serotonin transporter, 7.12.
Take `Cc1ccc2c3c(ccc2n1)OC[C@H](CN1CCN(c2cccc4c2OCCO4)CC1)O3` [Example 7, (2S)-2-{[4-(dihydrobenzo[1,4]dioxin-5-yl)piperazin-1-yl]methyl}-8-methyl-2,3-dihydro[1,4]dioxino[2,3-f]quinoline]: the “5HT1A Receptor Affinity, % @ 1 μM” value on human 5HT1A receptors (@ 1 μM) turned out to be 91% @ 1 μM. For the same compound, the pKi at serotonin transporter was 8.92. Besides, the pIC50 in data set [1] is 6.25.
For the compound `Cc1ccc2c3c(ccc2n1)OC[C@H](CN1CCN(c2ccc4ccccc4n2)CC1)O3` [Example 12, (2S)-8-methyl-2-[(4-quinolin-2-ylpiprazin-1-yl)methyl]-2,3-dihydro[1,4]dioxino[2,3-f]quinoline], at human 5HT1A receptors, the negative-log Ki (pKi) is 7.33. Moreover, the pKi at serotonin transporter is 7.32. Further, in data set [1], the 5HT1A Function Imax was found to be 100% and the negative-log IC50 (pIC50) is 5.52.
Take `Cc1ccc2c3c(ccc2n1)OC[C@H](CN1CCN(c2ccc4cc([N+](=O)[O-])ccc4n2)CC1)O3` [Example 13]: the pKi is 7.70 on human 5HT1A receptors and 9.60 on serotonin transporter. Also, the 5HT1A Function Imax in data set [1] came to 70%. In addition, the pIC50 in data set [1] was 6.49.
On to `Cc1ccc2c3c(ccc2n1)OC[C@H](CN1CCN(c2ccc4cc(Cl)ccc4n2)CC1)O3` [Example 14], for which the pKi on human 5HT1A receptors was 6.67. Moreover, on serotonin transporter, the pKi was 9.19. In data set [1], the 5HT1A Function Imax came to 58% and the pIC50 was 7.13.
`Cc1ccc2c3c(ccc2n1)OC[C@H](CN1CCN(c2ccc4cc(C#N)ccc4n2)CC1)O3` [Example 15, 2-(4-{[(2S)-8-methyl-2,3-dihydro[1,4]dioxino[2,3-f]quinolin-2-yl]methyl}piperazin-1-yl}quinoline-6-carbonitrile]: the pKi on human 5HT1A receptors was 8.43; on serotonin transporter, 7.87. For the same compound, the pIC50 in data set [1] was 7.08.
Take `Cc1ccc2c3c(ccc2n1)OC[C@H](CN1CCN(c2coc4ccc(F)cc24)CC1)O3` [Example 17, (2S)-2-{[4-(5-fluoro-1-benzofuran-3-yl)-1-piperazinyl]methyl}-8-methyl-2,3-dihydro[1,4]dioxino[2,3-f]quinoline]: the figures for the pKi at human 5HT1A receptors and at serotonin transporter were 6.14 and 7.13, respectively.
Turning to `Cc1ccc2c3c(ccc2n1)OC[C@H](CN1CCN(c2coc4ccccc24)CC1)O3` [Example 18, (2S)-2-{[4-(1-benzofuran-3-yl)-1-piperazinyl]methyl}-8-methyl-2,3-dihydro[1,4]dioxino[2,3-f]quinoline], the pKi at human 5HT1A receptors was 7.39; at serotonin transporter, 7.80.
With `Cc1ccc2c3c(ccc2n1)OC[C@H](CN1CCN(c2ccc4cc(C#N)ccc4n2)C[C@H]1C)O3` [Example 20], the figures for the pKi on human 5HT1A receptors and at serotonin transporter were 8.55 and 6.16, respectively. The 5HT1A Function Imax in data set [1] stood at 92%. Besides, the pIC50 in data set [1] was 7.08.
The like results for `Cc1ccc2c3c(ccc2n1)OC[C@H](CN1CCN(c2ccc4ccccc4c2)CC1)O3` [Example 22, (2S)-8-methyl-2-{[4-(2-naphthyl)piperazin-1-yl]methyl}-2,3-dihydro[1,4]dioxino[2,3-f]quinoline] were, in that order, 7.27, 7.70, 76% and 5.34.
As to `Cc1ccc2c3c(ccc2n1)OC[C@H](CN1CCN(c2ccc4cc(C(N)=O)ccc4n2)CC1)O3` [Example 23], the pKi at human 5HT1A receptors was 8.14. At serotonin transporter, the “5-HT Transporter Affinity, % @ 1 μM” value was 56% @ 1 μM. Besides, in data set [1], the 5HT1A Function Imax stood at 71% and the pIC50 is 6.89.
As for `N#Cc1ccc2nc(N3CCN(C[C@H]4COc5ccc6ncccc6c5O4)CC3)ccc2c1` [Example 24, (2S)-2-[4-(2,3-Dihydro-[1,4]dioxino[2,3-f]quinolin-2-ylmethyl)-piperazin-1-yl]-quinoline-6-carbonitrile], the pKi was 8.14 at human 5HT1A receptors and 6.51 on serotonin transporter. In addition, the 5HT1A Function Imax in data set [1] amounted to 58%. The pIC50 in data set [1] was 7.24.
In the case of `CCc1ccc2c3c(ccc2n1)OC[C@H](CN1CCN(c2ccc4cc(C#N)ccc4n2)CC1)O3` [Example 25, (2S)-2-[4-(8-Ethyl-2,3-dihydro-[1,4]dioxino[2,3-f]quinolin-2-ylmethyl)-piperazin-1-yl]-quinoline-6-carbonitrile], the pKi was 8.32 at human 5HT1A receptors and 7.17 on serotonin transporter. The “5HT1A Function Emax” value in data set [1] was 67. Further, the pEC50 in data set [1] is 5.95.
The corresponding values for `Cc1nc2ccc3c(c2o1)O[C@@H](CN1CCN(c2ccc4cc(C#N)ccc4n2)CC1)CO3` [Example 26, (2S)-2-[4-(2-Methyl-7,8-dihydro-1,6,9-trioxa-3-aza-cyclopenta[a]naphthalen-8-ylmethyl)-piperazin-1-yl]-quinoline-6-carbonitrile] are 7.60, 6.39, 64 and 6.15.
With `Cc1ccc2c3c(ccc2n1)OC[C@H](CN1CCNCC1)O3` [Example 29, 8-Methyl-2-piperazin-1-ylmethyl-2,3-dihydro-[1,4]dioxino[2,3-f]quinoline], the results for the pKi at human 5HT1A receptors and on serotonin transporter were 8.90 and 6.70, respectively. The compound also had a 5HT1A Function Imax in data set [1] of 100%. The pIC50 in data set [1] is 5.88.
For `COc1ccc2nc(N3CCCN(C[C@H]4COc5ccc6nc(C)ccc6c5O4)CC3)ccc2c1` [Example 33, (2S)-2-{[4-(6-methoxyquinolin-2-yl)-1,4-diazepan-1-yl]methyl]-8-methyl-2,3-dihydro[1,4]dioxino[2,3-f]quinoline], at human 5HT1A receptors, the pKi is 8.76. In addition, at serotonin transporter, the pKi is 8.14. Moreover, in data set [1], the 5HT1A Function Imax amounted to 92% and the pIC50 is 6.50.
